Earlier results in PMC6259197, “Alkaloids from Stems of Esenbeckia leiocarpa Engl. (Rutaceae) as Potential Treatment for Alzheimer Disease” (Molecules, 2010).

How the values were obtained:
[1] = test system: Leucoagaricus gongylophorus; design: method as in doi:10.1590/S0103-50532002000100010; conditions: alkaloids from Raulinoa echinata; symbiotic fungus of leaf-cutting ants
brine shrimp = conditions: alkaloids isolated from leaves of E. belizencis
Pectinophora gossypiella = test system: Pectinophora gossypiella; design: method as in PMID 1965201; conditions: activity of extract attributed to leiokinine A and B

In the case of `COc1c2ccoc2nc2c(OC)c3c(cc12)OCO3` [flindersiamine], the “antifungal activity against Leucoagaricus gongylophorus” value [1] is listed as “antifungal activity” and the “brine shrimp toxicity LC50” value (brine shrimp) is listed as > 1,000 ppm.
For `COc1cc2nc3occc3c(OC)c2cc1OC` [kokusaginine], the “antifungal activity against Leucoagaricus gongylophorus” value [1] is listed as “antifungal activity”, the “brine shrimp toxicity LC50” value (brine shrimp) is listed as 367 ppm and the mutagenic activity is listed as “weak mutagenic activity”.
In the case of `CCCc1c(OC)c(=O)c2ccccc2n1C` [leiokinine A], the “antifeedant activity against pink bollworm” value (Pectinophora gossypiella) is given as “weak antifeedant activity”.
For `COc1c2cc3c(cc2nc2occc12)OCO3` [maculine], the “antifungal activity against Leucoagaricus gongylophorus” value [1] is listed as “antifungal activity”.
For `COc1ccc2c(OC)c3ccoc3nc2c1OC` [skimmianine], the “antifungal activity against Leucoagaricus gongylophorus” value [1] is listed as “antifungal activity” and the mutagenic activity is listed as “weak mutagenic activity”.
For leiokinine B, the “antifeedant activity against pink bollworm” value (Pectinophora gossypiella) is given as “weak antifeedant activity”.
